PMC5666424, “Marine-Derived 2-Aminoimidazolone Alkaloids. Leucettamine B-Related Polyandrocarpamines Inhibit Mammalian and Protozoan DYRK & CLK Kinases” (Marine Drugs, 2017)

Legend:
Experiment in all cases: KinomeScan
Format in all cases: binding
Conditions in all cases: 1 μM
MST1 = target: T1, MST1 (Homo sapiens, UniProt Q13043)
T1 construct: purchased DiscoverX (KINOMEscan)

NEK2 = target: T2, NEK2 (Homo sapiens, UniProt P51955)
T2 construct: purchased DiscoverX (KINOMEscan)

SRMS = target: T3, SRMS (Homo sapiens, UniProt Q9H3Y6)
T3 construct: purchased DiscoverX (KINOMEscan)

AURKB = target: T4, AURKB (Homo sapiens, UniProt Q96GD4)
T4 construct: purchased DiscoverX (KINOMEscan)
T4 sequence (Q96GD4 whole entry): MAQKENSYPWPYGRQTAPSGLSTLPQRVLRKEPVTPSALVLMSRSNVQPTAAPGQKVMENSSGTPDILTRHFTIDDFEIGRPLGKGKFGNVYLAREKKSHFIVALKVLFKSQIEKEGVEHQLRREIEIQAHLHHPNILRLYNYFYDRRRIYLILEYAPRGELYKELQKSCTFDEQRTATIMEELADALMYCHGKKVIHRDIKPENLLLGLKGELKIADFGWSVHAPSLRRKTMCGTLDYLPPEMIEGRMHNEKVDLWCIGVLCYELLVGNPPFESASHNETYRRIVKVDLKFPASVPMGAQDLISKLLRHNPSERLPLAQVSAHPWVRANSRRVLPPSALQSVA

EGFR(G719C) = target: T5, EGFR(G719C) (Homo sapiens, UniProt P00533, G719C)
T5 construct: purchased DiscoverX (KINOMEscan)

ERK5 = target: T6, ERK5 (Homo sapiens, UniProt Q13164)
T6 construct: purchased DiscoverX (KINOMEscan)

EPHB3 = target: T7, EPHB3 (Homo sapiens, UniProt P54753)
T7 construct: purchased DiscoverX (KINOMEscan)

HIPK1 = target: T8, HIPK1 (Homo sapiens, UniProt Q86Z02)
T8 construct: purchased DiscoverX (KINOMEscan)
T8 sequence (Q86Z02 whole entry): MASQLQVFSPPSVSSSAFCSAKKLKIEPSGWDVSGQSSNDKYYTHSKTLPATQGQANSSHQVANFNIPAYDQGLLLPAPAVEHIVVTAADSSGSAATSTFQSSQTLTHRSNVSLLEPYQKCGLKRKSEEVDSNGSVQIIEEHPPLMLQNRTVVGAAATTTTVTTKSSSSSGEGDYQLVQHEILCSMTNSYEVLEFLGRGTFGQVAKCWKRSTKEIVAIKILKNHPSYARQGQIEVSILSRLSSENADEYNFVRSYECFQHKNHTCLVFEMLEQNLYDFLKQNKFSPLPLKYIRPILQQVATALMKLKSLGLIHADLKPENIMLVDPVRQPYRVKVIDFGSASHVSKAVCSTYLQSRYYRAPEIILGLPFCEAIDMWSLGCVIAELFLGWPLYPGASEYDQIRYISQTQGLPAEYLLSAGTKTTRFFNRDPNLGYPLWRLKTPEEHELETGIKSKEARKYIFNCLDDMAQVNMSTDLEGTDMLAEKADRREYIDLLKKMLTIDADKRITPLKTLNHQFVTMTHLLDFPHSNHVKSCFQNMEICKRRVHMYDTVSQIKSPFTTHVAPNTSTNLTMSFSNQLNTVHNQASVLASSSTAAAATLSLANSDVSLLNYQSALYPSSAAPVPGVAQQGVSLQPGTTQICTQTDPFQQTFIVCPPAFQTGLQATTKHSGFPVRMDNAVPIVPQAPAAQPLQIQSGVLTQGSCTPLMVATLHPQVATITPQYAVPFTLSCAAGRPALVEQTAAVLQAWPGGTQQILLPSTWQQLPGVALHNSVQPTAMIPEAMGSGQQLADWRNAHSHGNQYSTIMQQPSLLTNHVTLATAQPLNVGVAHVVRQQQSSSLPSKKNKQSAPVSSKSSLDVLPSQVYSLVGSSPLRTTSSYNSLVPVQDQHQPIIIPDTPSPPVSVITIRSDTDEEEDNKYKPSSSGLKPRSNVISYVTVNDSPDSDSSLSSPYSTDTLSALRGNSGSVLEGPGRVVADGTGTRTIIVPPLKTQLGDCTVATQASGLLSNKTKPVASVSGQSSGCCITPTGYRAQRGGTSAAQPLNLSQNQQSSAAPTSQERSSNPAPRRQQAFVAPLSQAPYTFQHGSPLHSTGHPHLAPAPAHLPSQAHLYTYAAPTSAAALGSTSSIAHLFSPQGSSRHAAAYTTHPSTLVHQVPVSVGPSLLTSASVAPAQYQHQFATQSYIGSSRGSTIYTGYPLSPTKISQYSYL

MEK1 = target: T9, MEK1 (Homo sapiens, UniProt Q02750)
T9 construct: purchased DiscoverX (KINOMEscan)

DAPK1 = target: T10, DAPK1 (Homo sapiens, UniProt P53355)
T10 construct: purchased DiscoverX (KINOMEscan)

ZAK = target: T11, ZAK (Homo sapiens, UniProt Q9NYL2)
T11 construct: purchased DiscoverX (KINOMEscan)

ERK8 = target: T12, ERK8 (Homo sapiens, UniProt Q8TD08)
T12 construct: purchased DiscoverX (KINOMEscan)
T12 sequence (Q8TD08 whole entry): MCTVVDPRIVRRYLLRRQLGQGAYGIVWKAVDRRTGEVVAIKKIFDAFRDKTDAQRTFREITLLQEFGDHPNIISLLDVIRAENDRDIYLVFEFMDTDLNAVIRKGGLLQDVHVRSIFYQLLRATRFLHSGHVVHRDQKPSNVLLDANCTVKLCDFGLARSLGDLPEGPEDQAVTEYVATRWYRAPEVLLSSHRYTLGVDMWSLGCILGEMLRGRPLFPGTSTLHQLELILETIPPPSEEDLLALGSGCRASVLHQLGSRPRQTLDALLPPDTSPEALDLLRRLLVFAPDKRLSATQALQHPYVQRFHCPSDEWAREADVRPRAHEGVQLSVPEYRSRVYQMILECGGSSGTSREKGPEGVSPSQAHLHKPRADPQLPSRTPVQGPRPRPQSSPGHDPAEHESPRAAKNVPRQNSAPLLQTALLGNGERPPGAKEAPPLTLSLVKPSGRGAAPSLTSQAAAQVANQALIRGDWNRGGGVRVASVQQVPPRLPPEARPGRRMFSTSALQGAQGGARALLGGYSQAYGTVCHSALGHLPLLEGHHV

CAMK2D = target: T13, CAMK2D (Homo sapiens, UniProt Q13557)
T13 construct: purchased DiscoverX (KINOMEscan)

YSK4 = target: T14, YSK4 (Homo sapiens, UniProt Q56UN5)
T14 construct: purchased DiscoverX (KINOMEscan)
T14 sequence (Q56UN5 whole entry): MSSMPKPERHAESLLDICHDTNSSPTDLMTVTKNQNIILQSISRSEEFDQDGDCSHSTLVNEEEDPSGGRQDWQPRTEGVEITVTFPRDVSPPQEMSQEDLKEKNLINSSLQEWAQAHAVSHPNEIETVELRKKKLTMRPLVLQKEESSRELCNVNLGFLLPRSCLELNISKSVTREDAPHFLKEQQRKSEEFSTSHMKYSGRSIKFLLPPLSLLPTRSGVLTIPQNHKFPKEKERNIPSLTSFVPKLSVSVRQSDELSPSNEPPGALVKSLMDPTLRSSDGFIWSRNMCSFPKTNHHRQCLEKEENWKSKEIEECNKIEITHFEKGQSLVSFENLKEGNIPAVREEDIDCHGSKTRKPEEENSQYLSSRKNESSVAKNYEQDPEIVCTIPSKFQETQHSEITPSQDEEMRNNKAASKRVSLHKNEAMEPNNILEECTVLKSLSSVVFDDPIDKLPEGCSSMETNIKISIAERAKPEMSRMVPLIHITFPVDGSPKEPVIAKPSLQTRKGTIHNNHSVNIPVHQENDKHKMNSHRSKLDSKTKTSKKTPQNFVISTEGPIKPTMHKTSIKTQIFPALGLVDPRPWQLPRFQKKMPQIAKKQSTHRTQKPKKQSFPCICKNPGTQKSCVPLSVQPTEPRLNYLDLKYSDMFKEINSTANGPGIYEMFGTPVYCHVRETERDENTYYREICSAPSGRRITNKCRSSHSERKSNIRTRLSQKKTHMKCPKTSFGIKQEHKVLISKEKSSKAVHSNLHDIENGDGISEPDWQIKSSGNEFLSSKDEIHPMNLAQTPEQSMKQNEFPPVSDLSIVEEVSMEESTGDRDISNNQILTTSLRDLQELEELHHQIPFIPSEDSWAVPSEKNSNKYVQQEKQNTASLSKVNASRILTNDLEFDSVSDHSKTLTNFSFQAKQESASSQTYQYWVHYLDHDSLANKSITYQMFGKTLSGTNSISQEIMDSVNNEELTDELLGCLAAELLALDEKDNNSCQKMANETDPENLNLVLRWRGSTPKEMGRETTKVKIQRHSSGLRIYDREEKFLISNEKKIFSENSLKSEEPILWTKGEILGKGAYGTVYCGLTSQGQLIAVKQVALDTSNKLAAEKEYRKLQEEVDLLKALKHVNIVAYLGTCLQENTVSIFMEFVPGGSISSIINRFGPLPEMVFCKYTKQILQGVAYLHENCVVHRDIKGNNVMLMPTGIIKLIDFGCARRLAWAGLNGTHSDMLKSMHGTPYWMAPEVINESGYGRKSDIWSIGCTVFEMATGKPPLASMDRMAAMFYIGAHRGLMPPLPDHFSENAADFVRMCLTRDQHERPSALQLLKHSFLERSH

TGFBR2 = target: T15, TGFBR2 (Homo sapiens, UniProt P37173)
T15 construct: purchased DiscoverX (KINOMEscan)
T15 sequence (P37173 23-567): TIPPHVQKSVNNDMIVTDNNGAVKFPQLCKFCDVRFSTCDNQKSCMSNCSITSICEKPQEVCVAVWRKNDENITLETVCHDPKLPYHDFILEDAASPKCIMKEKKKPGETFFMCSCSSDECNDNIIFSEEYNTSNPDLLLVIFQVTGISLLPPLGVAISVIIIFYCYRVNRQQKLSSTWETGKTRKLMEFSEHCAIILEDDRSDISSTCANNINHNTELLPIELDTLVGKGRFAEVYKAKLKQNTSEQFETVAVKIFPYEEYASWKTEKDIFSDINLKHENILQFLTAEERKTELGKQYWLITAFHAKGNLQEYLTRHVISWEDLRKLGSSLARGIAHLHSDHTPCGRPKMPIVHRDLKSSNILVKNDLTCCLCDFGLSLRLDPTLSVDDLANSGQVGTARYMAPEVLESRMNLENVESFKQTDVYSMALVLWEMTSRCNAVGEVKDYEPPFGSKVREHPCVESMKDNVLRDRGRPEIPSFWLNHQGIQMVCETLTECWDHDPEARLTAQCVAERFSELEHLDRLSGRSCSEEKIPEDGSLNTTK

MYO3B = target: T16, MYO3B (Homo sapiens, UniProt Q8WXR4)
T16 construct: purchased DiscoverX (KINOMEscan)

[1] = target: T17, RPS6KA4 (Kin.Dom.2-C-terminal) (Homo sapiens, UniProt O75676)
T17 construct: Kin.Dom.2-C-terminal; purchased DiscoveRx (KinomeScan, San Diego, CA, USA)
T17 sequence (O75676 411-674 limits assumed): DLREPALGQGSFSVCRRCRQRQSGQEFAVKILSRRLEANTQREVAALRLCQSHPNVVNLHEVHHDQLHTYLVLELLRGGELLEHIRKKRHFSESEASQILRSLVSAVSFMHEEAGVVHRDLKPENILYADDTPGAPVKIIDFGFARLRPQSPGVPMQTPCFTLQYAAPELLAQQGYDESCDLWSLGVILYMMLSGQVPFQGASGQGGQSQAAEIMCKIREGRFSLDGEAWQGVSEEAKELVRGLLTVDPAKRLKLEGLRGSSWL

NEK1 = target: T18, NEK1 (Homo sapiens, UniProt Q96PY6)
T18 construct: purchased DiscoverX (KINOMEscan)

TESK1 = target: T19, TESK1 (Homo sapiens, UniProt Q15569)
T19 construct: purchased DiscoverX (KINOMEscan)

TAOK2 = target: T20, TAOK2 (Homo sapiens, UniProt Q9UL54)
T20 construct: purchased DiscoverX (KINOMEscan)

STK36 = target: T21, STK36 (Homo sapiens, UniProt Q9NRP7)
T21 construct: purchased DiscoverX (KINOMEscan)

FGFR1 = target: T22, FGFR1 (Homo sapiens, UniProt P11362)
T22 construct: purchased DiscoverX (KINOMEscan)

FLT3(R834Q) = target: T23, FLT3(R834Q) (Homo sapiens, UniProt P36888, R834Q)
T23 construct: purchased DiscoverX (KINOMEscan)

MYO3A = target: T24, MYO3A (Homo sapiens, UniProt Q8NEV4)
T24 construct: purchased DiscoverX (KINOMEscan)

ULK3 = target: T25, ULK3 (Homo sapiens, UniProt Q6PHR2)
T25 construct: purchased DiscoverX (KINOMEscan)

NEK3 = target: T26, NEK3 (Homo sapiens, UniProt P51956)
T26 construct: purchased DiscoverX (KINOMEscan)

SRPK1 = target: T27, SRPK1 (Homo sapiens, UniProt Q96SB4)
T27 construct: purchased DiscoverX (KINOMEscan)

ACVR2B = target: T28, ACVR2B (Homo sapiens, UniProt Q13705)
T28 construct: purchased DiscoverX (KINOMEscan)

IKK-beta = target: T29, IKK-beta (Homo sapiens, UniProt O14920)
T29 construct: purchased DiscoverX (KINOMEscan)

CASK = target: T30, CASK (Homo sapiens, UniProt O14936)
T30 construct: purchased DiscoverX (KINOMEscan)

INSRR = target: T31, INSRR (Homo sapiens, UniProt P14616)
T31 construct: purchased DiscoverX (KINOMEscan)

BRK = target: T32, BRK (Homo sapiens, UniProt Q13882)
T32 construct: purchased DiscoverX (KINOMEscan)

AXL = target: T33, AXL (Homo sapiens, UniProt P30530)
T33 construct: purchased DiscoverX (KINOMEscan)

MST2 = target: T34, MST2 (Homo sapiens, UniProt Q13188)
T34 construct: purchased DiscoverX (KINOMEscan)

CDK4-cyclinD1 = target: T35, CDK4-cyclinD1 (Homo sapiens, UniProt P11802)
T35 construct: purchased DiscoverX (KINOMEscan)

[2] = target: T36, JAK2(JH1domain-catalytic) (Homo sapiens, UniProt O60674)
T36 construct: JAK2(JH1domain-catalytic); purchased DiscoverX (KINOMEscan)

CDC2L1 = target: T37, CDC2L1 (Homo sapiens, UniProt P21127)
T37 construct: purchased DiscoverX (KINOMEscan)
T37 sequence (P21127 whole entry): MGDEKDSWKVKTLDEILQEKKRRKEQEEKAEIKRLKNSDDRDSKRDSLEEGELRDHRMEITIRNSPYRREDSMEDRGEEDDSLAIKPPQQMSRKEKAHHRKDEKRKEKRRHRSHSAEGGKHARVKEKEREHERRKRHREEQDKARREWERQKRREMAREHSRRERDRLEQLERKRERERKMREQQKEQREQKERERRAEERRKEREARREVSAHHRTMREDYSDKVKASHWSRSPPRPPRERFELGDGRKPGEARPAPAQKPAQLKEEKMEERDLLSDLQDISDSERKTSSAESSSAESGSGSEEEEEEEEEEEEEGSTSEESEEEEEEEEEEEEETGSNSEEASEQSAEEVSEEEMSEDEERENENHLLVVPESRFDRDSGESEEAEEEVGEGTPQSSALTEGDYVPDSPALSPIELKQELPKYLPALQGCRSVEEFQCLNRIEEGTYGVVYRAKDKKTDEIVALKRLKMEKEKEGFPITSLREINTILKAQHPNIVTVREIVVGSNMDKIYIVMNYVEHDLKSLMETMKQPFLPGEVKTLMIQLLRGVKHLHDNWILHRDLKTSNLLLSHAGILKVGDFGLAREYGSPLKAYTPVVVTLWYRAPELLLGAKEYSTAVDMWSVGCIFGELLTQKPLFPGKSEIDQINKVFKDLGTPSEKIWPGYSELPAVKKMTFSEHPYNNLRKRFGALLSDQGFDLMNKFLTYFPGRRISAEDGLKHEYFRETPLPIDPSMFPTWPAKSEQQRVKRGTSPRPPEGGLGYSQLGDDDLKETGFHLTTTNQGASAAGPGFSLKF

Compound: COc1cc(/C=C2\N=C(N)NC2=O)ccc1O [Polyandrocarpamine A]
- Score (MST1): 70
- Score (NEK2): 100
- Score (SRMS): 100
- Score (AURKB): 100
- Score (EGFR(G719C)): 95
- Score (ERK5): 100
- Score (EPHB3): 100
- Score (HIPK1): 52
- Score (MEK1): 100
- Score (DAPK1): 79
- Score (ZAK): 95
- Score (ERK8): 67
- Score (CAMK2D): 100
- Score (YSK4): 100
- Score (TGFBR2): 100
- Score (MYO3B): 88
- Score [1]: 22
- Score (NEK1): 100
- Score (TESK1): 100
- Score (TAOK2): 100
- Score (STK36): 96
- Score (FGFR1): 100
- Score (FLT3(R834Q)): 100
- Score (MYO3A): 100
- Score (ULK3): 100
- Score (NEK3): 100
- Score (SRPK1): 100
- Score (ACVR2B): 99
- Score (IKK-beta): 100
- Score (CASK): 100
- Score (INSRR): 81
- Score (BRK): 100
- Score (AXL): 100
- Score (MST2): 100
- Score (CDK4-cyclinD1): 96
- Score [2]: 97
- Score (CDC2L1): 100
